Drawing on ChEMBL document CHEMBL3046826, “Triosephosphate isomerases in Italian ryegrass ( Lolium multiflorum ): characterization and susceptibility to herbicides” (J Agric Food Chem, 2009), this text covers Activity and inhibition for five compounds.

Experiment [1] concerns the target Triosephosphate isomerase, chloroplastic (Secale cereale) (UniProt P46225). Kind of experiment: Inhibition of desalted triosephosphate isomerase in Lolium multiflorum (Italian rye grass) shoot assessed as transformation of GAP to DHAP applied at concentration of 20.0 mg/flat measured per mg protein after 48 hr by coupled enzyme assay (reference value: 9.80 +/-0.43 nmol/sec).

Experiment [2] shares this target. Kind of experiment: Inhibition of desalted triosephosphate isomerase in Lolium multiflorum (Italian ryegrass) shoot assessed as transformation of GAP to DHAP applied at concentration of 14.4 mg/flat measured per mg protein after 48 hr by coupled enzyme assay (reference value: 9.80 +/-0.43 nmol/sec).
Experiment [3] shares this target. Kind of experiment: Inhibition of desalted triosephosphate isomerase in Lolium multiflorum (Italian ryegrass) shoot assessed as decrease in transformation of GAP to DHAP applied at concentration of 14.4 mg/flat measured after 48 hr by coupled enzyme assay.
Experiment [4] shares this target. Kind of experiment: Inhibition of desalted triosephosphate isomerase in Lolium multiflorum (Italian rye grass) shoot assessed as transformation of GAP to DHAP applied at concentration of 4.43 mg/flat measured per mg protein after 48 hr by coupled enzyme assay (reference value: 9.80 +/-0.43 nmol/sec).
Experiment [5] shares this target. In words: Inhibition of desalted triosephosphate isomerase in Lolium multiflorum (Italian ryegrass) shoot assessed as transformation of GAP to DHAP applied at concentration of 1.80 mg/flat measured per mg protein after 48 hr by coupled enzyme assay (reference value: 9.80 +/-0.43 nmol/sec).

Triosephosphate isomerase, chloroplastic (Secale cereale), sequence (P46225 whole entry): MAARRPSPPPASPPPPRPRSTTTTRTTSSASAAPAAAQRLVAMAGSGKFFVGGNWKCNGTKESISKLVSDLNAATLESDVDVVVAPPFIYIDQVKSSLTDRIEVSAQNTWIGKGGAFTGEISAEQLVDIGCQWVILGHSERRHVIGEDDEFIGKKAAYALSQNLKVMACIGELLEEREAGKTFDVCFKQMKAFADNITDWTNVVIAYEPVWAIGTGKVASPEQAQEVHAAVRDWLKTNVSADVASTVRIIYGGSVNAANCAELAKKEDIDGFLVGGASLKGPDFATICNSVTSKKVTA

Consider `CCc1cccc(C)c1N(C(=O)CCl)C(C)COC` (configuration not stated), for which the Activity in experiment [1] turned out to be 9.57 nmol/s.

By inhibition is commonly meant the drop in the measured response relative to a control, in per cent. For `O=[N+]([O-])c1ccc(Oc2ccc(C(F)(F)F)cc2[N+](=O)[O-])cc1`, the Activity in experiment [2] stood at 6.28 nmol/s. For the same compound, in experiment [3], the inhibition amounted to 35.9%.

As for `CCNc1nc(Cl)nc(NC(C)C)n1`, the Activity in experiment [2] was found to be 7.2 nmol/s. The inhibition in experiment [3] was 26.5%.

Regarding `CCOC(=O)c1nc(C(Cl)(Cl)Cl)n(-c2ccc(Cl)cc2Cl)n1`, in experiment [4], the Activity turned out to be 10.2 nmol/s.

For the compound `CCOC(=O)C(C)Oc1ccc(Oc2nc3ccc(Cl)cc3o2)cc1` (configuration not stated), the Activity in experiment [5] was 9.3 nmol/s.
